Data: patent US8541455B2, “Derivatives of 2-pyridin-2-yl-pyrazol-3(2H)-one, preparation and therapeutic use thereof as HIF activators” (Sanofi, priority 2008, dated 2013)

Experiments:
[1] = system: VEGF secretion by Hep3B cells; assay: Measurement of the secretion of VEGF by Hep3B hepatocytes (ELISA on supernatant); format: cell-based; conditions: Homo sapiens, 18 hours incubation under normoxia, VEGF in supernatant, 50% of the maximum response of this same compound
From the text: (§1) 2. Measurement of the Secretion of VEGF and EPO by Hep3B Hepatocytes 2.1. Object
(§2) HIF is a transcription factor involved in the adaptation of cells to hypoxia. Since the genes activated by HIF are involved in the adaptive response of cells to hypoxia and of tissues to ischaemia, the object is to identify and characterize compounds that stabilize HIF1-alpha in cells in order to amplify or mimic its beneficial effect. HIF1-alpha was identified following the analysis of the EPO gene promoter, which makes this protein one of the first markers of HIF1-alpha activation. Moreover, VEGF is also identified in the literature as one of the main markers of HIF activation. It is for this reason that measurement of these two proteins was selected for characterizing compounds that are HIF activators in Hep3B cells.
(§3) The object was thus to develop a sensitive screening test, adaptable to 96-well plates, for directly measuring the amount of VEGF and EPO in the supernatant of the Hep3B cells (cells derived from a human hepatocarcinoma) in response to the potential HIF activators.
(§4) The test is an ELISA test for measuring VEGF and EPO in the supernatant of Hep3B cells treated under hypoxia or with deferoxamine as controls or with the potential HIF activators. The test was adapted to a 96-well plate, allowing greater compound screening capacity.
(§5) • 2.3.1 Experiment Plan • 1) Inoculation of the cells on D0 • 2) Adherence for 6 hours under normoxia • 3) Preparation and addition of the products (Biomek 2000 and FX) • 4) Incubation under normoxia for 18 hours • 5) EPO and VEGF assay in the supernatant on D+1 • 2.3.2 Inoculation of the Cells
(§6) The cells are subcultured into 100 μl of culture medium (10% FCS) in black, opaque-bottomed 96-well plates (reference Costar 3916) at 30 000 cells/well, with Multidrop. • 2.3.3 Treatment of the Cells
(§7) The test products are prepared at 10^−2 M in 100% DMSO and then diluted to […] in medium containing 0.1% FCS (6 μl in 194 μl of MEM). 200 μl of each compound are deposited in column 12 of a 96-well plate. Dilution ranges from […] to 3×10^−8M are prepared with Biomek 2000 (programme: range of 9 points in series). 100 μl of MEM 0.1% FCS and Deferoxamine 5×10^−3M are added as controls to column 3 and, respectively, to wells A,B,C,D and wells E,F,G,H • DL Plate Distribution in Cell Plates
(§8) The medium of the cells inoculated the day before into 96-well plates is changed for 90 μl of medium containing 0.1% FCS and 10 μl are distributed with FX 96 from the 96-well DL plates to the cell plates.
(§9) The cell plates thus treated are placed for 18 hours in an incubator at 37° C. (ambient O2, 6% CO2).
(§10) The supernatants (80 μl) of the Hep3B cells in the 96-well plates treated with the potential HIF activators are recovered with a multichannel pipette for simultaneous assay of the VEGF and the EPO by ELISA according to the supplier's instructions (Kit EPO Mesoscale (ref K15122B-2)).
(§11) The activating activity of a compound with respect to HIF is given by the concentration that produces 50% of the maximum response of this same compound in Table IV below.

[2] = system: EPO secretion by Hep3B cells; assay: Measurement of the secretion of EPO by Hep3B hepatocytes (ELISA on supernatant); format: cell-based; conditions: Homo sapiens, 18 hours incubation under normoxia, EPO in supernatant, 50% of the maximum response of this same compound
From the text: as §1, §2, §3, §4, §5, §6, §7, §8, §9, §10, §11

[3] = system: HIF1-alpha; assay: Measurement of the stabilization of HIF1-alpha in HEKEA cells (beta-galactosidase complementation, luminescence); format: cell-based, human; conditions: HEKEA_HIF1-alphaPLBL cells, 6 hours incubation under normoxia; concentration that produces 50% of the maximum response of this same compound
From the text: Furthermore, a subject of the invention is also a uniform test process for the direct measurement by beta-galactosidase complementation of the amount of HIF1-alpha protein in the nucleus of cells, preferably HEK cells, after treating the said cells with one or more test compounds, which consists in: • (a) inoculating, preferably in 384-well plates, the said cells in a suitable culture medium, preferably 1% foetal calf serum (abbreviated as FCS); • (b) adding the test compound(s) at a suitable concentration in a suitable solvent to the cells previously inoculated in the said culture medium; preferably the test compounds are diluted in 0.1% FCS; • (c) incubating the said cells thus prepared in an indicator at about 37° C., advantageously for about 6 hours; • (d) lysing the cells with a lysis buffer containing a chemiluminescent substrate for beta-galactosidase; • (e) incubating in the absence of light, before reading and measuring the luminescence, which is a function of the beta-galactosidase activity.
Many tests exist describing the indirect measurement of the activity of HIF via reporter gene systems (HRE-luciferase) or via the measurement of HIF-induced proteins (for example VEGF or EPO). Furthermore, the only tests that allow direct measurement of the amount of HIF1-alpha protein in cells are tests using antibodies, for instance Western blotting comprising phases of cell extraction (total lysates or nuclear extracts) that are consuming in terms of cells and time, thus limiting the compound screening capacity. The object was thus to develop a sensitive screening test, adaptable to 384-well plates, for directly measuring the amount of HIF1-alpha protein in the nucleus of cells. This test was established in HEK cells ([…]).
The test is a cell test based on the principle of enzyme complementation, the enzyme used herein being beta-galactosidase. HEKEA cells are HEK cells stably expressing, and restricted in their nucleus, mutant beta-galactosidase (omega fragment, also known as EA) (line sold by DiscoverX). This construct makes it possible to obtain beta-galactosidase activity only when the protein comprising the Prolabel complementation fragment has migrated into the nucleus.
The protein of interest comprising the Prolabel fragment is in this case an HIF1-alpha or HIF1-alpha mutated at the two prolines 402 and 564 replaced with alanines, is C-terminal fused via molecular biology (DiscoverX vector sold by Clontech) with the small complementation peptide fragment (Prolabel or ED, about 4 kDa). The vector coding for the chimeric protein HIF1-alpha_Prolabel is then transfected into HEKEA cells to obtain stable clones (HEKEA_HIF1-alphaPLBL).
The amount of C-terminal Prolabel-“labelled” HIF1-alpha protein obtained after treating the cells to hypoxia or compounds that are potentially HIF activators is measured by adding to the cells a lysis buffer containing a chemiluminescent substrate for beta-galactosidase.
The measurement of the beta-galactosidase activity will be proportional to the amount of Prolabel and thus of HIF1-alpha that has migrated into the nucleus of the cells.
• 1.3.1 Experiment Plan • 1) Inoculation of the cells on D0 • 2) Adherence for 24 hours under normoxia • 3) Preparation and addition of the products (Biomek 2000 and FX) on D+1 • 4) Incubation under normoxia for 6 hours • 5) Reading of the plates (by luminescence)
The cells are inoculated with Multidrop in white, opaque-bottomed 384-well plates (Greiner ref 3704), in 30 μl of culture medium (1% FCS) at 10 000 cells/well (cell plate). • 1.3.3 Treatment • Preparation of the Dilution Plate (DL Plate)
The test products are prepared at 3×10^−2 M in 100% DMSO and then diluted to 3×10^−4 M in medium containing 0.1% FCS (10 μl in 990 μl of MEM). They are then deposited by hand into column 12 of a round-bottomed 96-well plate (200 μl of each compound) known as the dilution plate (dl). […]

Row | SMILES | melting point [°C] | EC50 [3] [nM] | EC50 [1] [nM] | EC50 [2] [nM]
1 | CCN(c1ccccc1)S(=O)(=O)c1ccc(-n2[nH]c(C)c(Cc3cc(OC)cc(OC)c3)c2=O)nc1 [Compound 47] | 162 | 1100 | 2800 | 2000
2 | CCN(c1ccccc1)S(=O)(=O)c1ccc(-n2[nH]c(C)c(Cc3ccc(O)cc3)c2=O)nc1 [Compound 48] | 208 | 4300 | 1900 | 1100
3 | CCN(c1ccccc1)S(=O)(=O)c1ccc(-n2[nH]c(C)c(Cc3cc(OC)ccc3OC)c2=O)nc1 [Compound 44] | 140 | 3100 | 2100 | 1900

More lines, main results first:

Row | melting point [°C] | EC50 [3] [nM] | SMILES | EC50 [1] [nM] | EC50 [2] [nM]
4 | 186 | 3300 | CCN(c1ccccc1)S(=O)(=O)c1ccc(-n2[nH]c(C(F)(F)F)c(Cc3ccccc3)c2=O)nc1 [Compound 83, 6-(4-benzyl-5-oxo-3-trifluoromethyl-2,5-dihydro-1H-pyrazol-1-yl)-N-ethyl-N-phenylpyridine-3-sulfonamide] | 1300 | 1400
5 | 158 | 1500 | CCN(c1ccccc1)S(=O)(=O)c1ccc(-n2[nH]c(COC)c(Cc3ccccc3)c2=O)nc1 [Compound 82] | 1200 | 1000
6 | 180 | 1500 | CCCc1[nH]n(-c2ccc(S(=O)(=O)N(CC)c3ccccc3)cn2)c(=O)c1Cc1ccccc1 [Compound 68, 6-(4-benzyl-5-oxo-3-propyl-2,5-dihydro-1H-pyrazol-1-yl)-N-ethyl-N-phenylpyridine-3-sulfonamide] | 500 | 400
7 | 146 | 3300 | CCN(c1ccccc1)S(=O)(=O)c1ccc(-n2[nH]c(C)c(C3(c4ccccc4)CC3)c2=O)nc1 [Compound 80, N-ethyl-6-[3-methyl-5-oxo-4-(1-phenylcyclopropyl)-2,5-dihydro-1H-pyrazol-1-yl]-N-phenylpyridine-3-sulfonamide] | 900 | 400
